How the values were obtained:
Details in all cases: Compound concentration 10.0 uM
[1] = target: D(3) dopamine receptor (Homo sapiens) (UniProt P35462)
[2] = target: T1, Muscarinic acetylcholine receptor M2 (Homo sapiens) (UniProt P08172)
T1 sequence (whole entry): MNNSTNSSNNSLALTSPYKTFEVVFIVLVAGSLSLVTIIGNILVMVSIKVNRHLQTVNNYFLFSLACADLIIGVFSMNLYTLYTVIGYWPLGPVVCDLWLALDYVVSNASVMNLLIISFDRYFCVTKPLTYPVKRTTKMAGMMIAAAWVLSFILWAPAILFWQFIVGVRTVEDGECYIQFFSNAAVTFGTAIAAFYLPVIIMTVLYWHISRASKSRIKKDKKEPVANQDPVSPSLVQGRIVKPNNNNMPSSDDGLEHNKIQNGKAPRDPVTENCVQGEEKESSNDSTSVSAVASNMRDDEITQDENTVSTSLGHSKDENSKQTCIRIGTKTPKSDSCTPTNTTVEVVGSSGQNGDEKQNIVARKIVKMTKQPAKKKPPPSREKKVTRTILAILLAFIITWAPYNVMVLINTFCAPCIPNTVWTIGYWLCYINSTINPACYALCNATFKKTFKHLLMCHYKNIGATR

[3] = target: Alpha-1A adrenergic receptor (Homo sapiens) (UniProt P35348)
Alpha-1A adrenergic receptor (Homo sapiens), sequence (P35348 whole entry): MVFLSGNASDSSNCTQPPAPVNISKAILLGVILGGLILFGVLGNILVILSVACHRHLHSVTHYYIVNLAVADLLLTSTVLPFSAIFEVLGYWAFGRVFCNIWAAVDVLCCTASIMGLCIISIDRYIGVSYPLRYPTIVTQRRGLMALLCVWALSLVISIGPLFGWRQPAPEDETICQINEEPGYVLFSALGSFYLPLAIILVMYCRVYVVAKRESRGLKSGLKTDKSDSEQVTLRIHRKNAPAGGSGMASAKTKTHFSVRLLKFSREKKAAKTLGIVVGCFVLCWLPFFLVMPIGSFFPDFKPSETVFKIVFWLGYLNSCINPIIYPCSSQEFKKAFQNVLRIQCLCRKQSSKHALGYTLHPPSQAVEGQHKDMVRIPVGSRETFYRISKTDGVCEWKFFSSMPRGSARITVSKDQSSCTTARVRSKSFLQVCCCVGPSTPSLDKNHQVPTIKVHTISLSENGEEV

[4] = target: Delta-type opioid receptor (Homo sapiens) (UniProt P41143)
Delta-type opioid receptor (Homo sapiens), sequence (P41143 whole entry): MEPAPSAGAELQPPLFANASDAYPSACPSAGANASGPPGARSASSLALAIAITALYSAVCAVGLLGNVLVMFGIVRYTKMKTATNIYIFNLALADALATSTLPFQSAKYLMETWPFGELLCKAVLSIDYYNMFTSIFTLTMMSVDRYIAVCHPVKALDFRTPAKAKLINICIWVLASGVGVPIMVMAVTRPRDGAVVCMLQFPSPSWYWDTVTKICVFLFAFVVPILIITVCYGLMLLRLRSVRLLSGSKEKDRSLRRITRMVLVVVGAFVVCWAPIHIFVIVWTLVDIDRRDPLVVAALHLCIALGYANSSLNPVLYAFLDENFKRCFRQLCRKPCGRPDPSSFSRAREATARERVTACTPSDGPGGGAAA

[5] = target: D(1B) dopamine receptor (Homo sapiens) (UniProt P21918)
D(1B) dopamine receptor (Homo sapiens), sequence (P21918 whole entry): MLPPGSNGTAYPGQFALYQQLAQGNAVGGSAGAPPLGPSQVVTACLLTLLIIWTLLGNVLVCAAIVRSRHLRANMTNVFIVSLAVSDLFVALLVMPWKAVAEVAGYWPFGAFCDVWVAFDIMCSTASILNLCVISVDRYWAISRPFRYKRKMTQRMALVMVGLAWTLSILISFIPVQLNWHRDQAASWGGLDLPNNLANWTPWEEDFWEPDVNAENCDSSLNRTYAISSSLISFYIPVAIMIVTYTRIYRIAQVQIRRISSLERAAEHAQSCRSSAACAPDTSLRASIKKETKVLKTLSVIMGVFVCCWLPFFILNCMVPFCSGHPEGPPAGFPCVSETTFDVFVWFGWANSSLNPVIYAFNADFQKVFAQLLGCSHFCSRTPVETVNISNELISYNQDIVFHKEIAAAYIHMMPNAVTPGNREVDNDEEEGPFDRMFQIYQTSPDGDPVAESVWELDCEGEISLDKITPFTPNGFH

[6] = target: T2, GABA-A receptor; anion channel (Rattus norvegicus) (UniProt O09028+P15431+P18506+P18508+P19969+P20236+P23574+P23576+P28471+P28473+P30191+P62813+P63079+P63138+Q91ZM7+Q9ES14)
[7] = target: Alpha-1D adrenergic receptor (Homo sapiens) (UniProt P25100)
Alpha-1D adrenergic receptor (Homo sapiens), sequence (P25100 whole entry): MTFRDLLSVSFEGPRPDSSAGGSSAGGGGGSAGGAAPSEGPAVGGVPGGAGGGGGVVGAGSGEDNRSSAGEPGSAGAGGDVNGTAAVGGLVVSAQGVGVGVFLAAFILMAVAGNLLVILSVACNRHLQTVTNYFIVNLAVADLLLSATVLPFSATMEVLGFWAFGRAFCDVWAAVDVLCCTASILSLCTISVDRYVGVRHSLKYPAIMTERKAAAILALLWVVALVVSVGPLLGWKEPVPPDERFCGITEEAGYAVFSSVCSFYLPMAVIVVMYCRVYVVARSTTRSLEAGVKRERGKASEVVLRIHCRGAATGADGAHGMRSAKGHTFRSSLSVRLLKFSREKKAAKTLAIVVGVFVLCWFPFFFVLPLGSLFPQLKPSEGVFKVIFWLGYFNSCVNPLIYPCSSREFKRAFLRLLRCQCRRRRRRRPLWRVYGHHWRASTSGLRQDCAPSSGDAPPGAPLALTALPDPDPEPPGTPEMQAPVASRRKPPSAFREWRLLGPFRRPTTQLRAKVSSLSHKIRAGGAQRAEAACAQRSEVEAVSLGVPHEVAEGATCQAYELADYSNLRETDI

[8] = target: T3, Muscarinic acetylcholine receptor M5 (Homo sapiens) (UniProt P08912)
T3 sequence (whole entry): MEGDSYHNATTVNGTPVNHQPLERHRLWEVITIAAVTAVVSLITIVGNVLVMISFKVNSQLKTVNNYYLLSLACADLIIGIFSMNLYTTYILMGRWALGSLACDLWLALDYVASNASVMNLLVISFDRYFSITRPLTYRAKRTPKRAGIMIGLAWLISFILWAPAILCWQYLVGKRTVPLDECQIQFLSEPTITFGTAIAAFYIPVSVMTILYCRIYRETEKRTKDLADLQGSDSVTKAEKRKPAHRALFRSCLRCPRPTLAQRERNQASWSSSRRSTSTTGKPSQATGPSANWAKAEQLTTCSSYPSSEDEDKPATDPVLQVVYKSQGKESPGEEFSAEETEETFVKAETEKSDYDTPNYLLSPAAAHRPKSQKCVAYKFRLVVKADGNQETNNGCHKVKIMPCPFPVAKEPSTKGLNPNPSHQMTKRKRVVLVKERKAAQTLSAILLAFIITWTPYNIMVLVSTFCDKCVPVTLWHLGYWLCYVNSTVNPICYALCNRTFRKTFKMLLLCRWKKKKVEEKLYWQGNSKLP

[9] = target: 5-hydroxytryptamine receptor 6 (Homo sapiens) (UniProt P50406)
5-hydroxytryptamine receptor 6 (Homo sapiens), sequence (P50406 whole entry): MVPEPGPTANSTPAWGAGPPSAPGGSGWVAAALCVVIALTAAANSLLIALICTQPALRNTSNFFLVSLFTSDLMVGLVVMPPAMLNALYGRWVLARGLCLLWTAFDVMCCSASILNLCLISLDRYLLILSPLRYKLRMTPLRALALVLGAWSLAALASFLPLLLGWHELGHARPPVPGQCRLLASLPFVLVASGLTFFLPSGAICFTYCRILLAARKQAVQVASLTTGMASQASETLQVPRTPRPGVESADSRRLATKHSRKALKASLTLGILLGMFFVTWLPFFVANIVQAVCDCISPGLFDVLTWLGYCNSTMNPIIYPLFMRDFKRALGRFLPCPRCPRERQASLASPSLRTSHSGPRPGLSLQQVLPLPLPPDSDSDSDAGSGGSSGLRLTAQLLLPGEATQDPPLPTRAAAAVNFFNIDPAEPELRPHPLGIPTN

[10] = target: Muscarinic acetylcholine receptor M3 (Homo sapiens) (UniProt P20309)
Muscarinic acetylcholine receptor M3 (Homo sapiens), sequence (P20309 whole entry, looked up): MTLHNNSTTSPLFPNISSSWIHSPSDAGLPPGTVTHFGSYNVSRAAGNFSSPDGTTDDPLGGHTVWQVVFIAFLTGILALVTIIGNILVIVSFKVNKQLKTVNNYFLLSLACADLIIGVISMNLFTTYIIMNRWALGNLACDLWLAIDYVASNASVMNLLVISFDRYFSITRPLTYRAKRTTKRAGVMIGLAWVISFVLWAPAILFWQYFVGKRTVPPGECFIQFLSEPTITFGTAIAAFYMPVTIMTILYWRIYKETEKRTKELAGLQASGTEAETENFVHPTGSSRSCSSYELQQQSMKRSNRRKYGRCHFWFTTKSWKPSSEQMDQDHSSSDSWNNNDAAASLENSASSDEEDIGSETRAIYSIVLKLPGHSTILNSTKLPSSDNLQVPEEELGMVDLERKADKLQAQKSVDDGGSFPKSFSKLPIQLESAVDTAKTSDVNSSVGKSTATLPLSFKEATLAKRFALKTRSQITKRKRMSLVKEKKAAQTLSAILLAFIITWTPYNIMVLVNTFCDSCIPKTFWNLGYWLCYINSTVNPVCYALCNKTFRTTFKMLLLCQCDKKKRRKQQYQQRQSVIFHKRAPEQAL

[11] = target: T4, 5-hydroxytryptamine receptor 3A (Homo sapiens) (UniProt P46098)
T4 sequence (whole entry): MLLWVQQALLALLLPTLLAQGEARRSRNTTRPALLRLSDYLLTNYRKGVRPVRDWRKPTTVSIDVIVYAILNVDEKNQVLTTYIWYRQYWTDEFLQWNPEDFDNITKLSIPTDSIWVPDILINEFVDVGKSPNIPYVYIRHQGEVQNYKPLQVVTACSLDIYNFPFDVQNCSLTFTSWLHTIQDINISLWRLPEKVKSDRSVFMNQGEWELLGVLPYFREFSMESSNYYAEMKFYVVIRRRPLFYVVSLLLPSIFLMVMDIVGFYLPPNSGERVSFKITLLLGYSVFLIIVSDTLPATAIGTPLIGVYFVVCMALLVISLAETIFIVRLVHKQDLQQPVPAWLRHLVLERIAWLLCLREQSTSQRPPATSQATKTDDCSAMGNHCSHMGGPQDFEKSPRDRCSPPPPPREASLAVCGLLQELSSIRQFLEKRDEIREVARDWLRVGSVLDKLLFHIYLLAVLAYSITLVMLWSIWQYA

[12] = target: T5, D(4) dopamine receptor (Homo sapiens) (UniProt P21917)
T5 sequence (whole entry): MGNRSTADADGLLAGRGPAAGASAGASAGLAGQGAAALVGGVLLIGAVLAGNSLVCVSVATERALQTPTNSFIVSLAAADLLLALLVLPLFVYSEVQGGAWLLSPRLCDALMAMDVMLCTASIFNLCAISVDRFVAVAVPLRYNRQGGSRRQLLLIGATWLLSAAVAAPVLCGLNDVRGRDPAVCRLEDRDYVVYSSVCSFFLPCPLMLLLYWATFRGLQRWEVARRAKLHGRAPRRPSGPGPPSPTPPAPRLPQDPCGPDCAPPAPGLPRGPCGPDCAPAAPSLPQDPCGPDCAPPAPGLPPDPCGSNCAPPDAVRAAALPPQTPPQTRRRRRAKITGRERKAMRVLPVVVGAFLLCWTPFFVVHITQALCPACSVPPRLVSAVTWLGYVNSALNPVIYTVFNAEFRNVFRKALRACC

[13] = target: T2, GABA-A receptor; anion channel (Rattus norvegicus); remark: listed apart in the source
[14] = target: 5-hydroxytryptamine receptor 2B (Homo sapiens) (UniProt P41595)
5-hydroxytryptamine receptor 2B (Homo sapiens), sequence (P41595 whole entry): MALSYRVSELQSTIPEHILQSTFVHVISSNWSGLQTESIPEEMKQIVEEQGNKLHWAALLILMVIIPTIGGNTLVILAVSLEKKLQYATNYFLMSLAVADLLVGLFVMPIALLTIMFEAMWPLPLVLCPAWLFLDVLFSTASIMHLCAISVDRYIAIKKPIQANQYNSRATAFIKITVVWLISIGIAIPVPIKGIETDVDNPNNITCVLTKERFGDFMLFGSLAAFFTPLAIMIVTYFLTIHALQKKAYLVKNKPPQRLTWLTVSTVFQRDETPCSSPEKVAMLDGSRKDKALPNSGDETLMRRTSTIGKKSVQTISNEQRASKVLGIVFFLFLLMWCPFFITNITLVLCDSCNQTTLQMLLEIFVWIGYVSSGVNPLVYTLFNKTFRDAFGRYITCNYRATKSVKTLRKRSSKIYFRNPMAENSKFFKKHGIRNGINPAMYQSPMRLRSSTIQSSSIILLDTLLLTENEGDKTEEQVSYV

Measured: inhibition

D(3) dopamine receptor (Homo sapiens), sequence (P35462 whole entry): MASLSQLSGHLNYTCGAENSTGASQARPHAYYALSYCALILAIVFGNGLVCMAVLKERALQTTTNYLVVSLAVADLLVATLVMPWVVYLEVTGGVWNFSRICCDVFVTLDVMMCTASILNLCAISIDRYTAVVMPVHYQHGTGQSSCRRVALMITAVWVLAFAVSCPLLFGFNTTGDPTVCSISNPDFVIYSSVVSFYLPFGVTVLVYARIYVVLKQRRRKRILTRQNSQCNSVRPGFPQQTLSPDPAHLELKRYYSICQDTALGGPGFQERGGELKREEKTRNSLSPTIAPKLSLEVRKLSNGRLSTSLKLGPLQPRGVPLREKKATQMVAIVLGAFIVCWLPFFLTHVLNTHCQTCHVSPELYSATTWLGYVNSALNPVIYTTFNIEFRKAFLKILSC

COc1ccc2cc(OCC3(C(=O)O)CN(C(=O)c4ccc(F)cc4)C3)ccc2c1 [PF-04418948]
inactive: [1] 33% | [2] 16.7% | [3] 2.52% | [4] 5.07% | [5] -2.51% | [6] -1.97% | [7] -3.76% | [8] -7.44% | [9] -6.47% | [10] 19.2% | [11] 0.08% | [12] 8.76% | [13] 18.7% | [14] -0.11%

O=C(c1ccc(F)cc1)N1CC(COc2ccc(Br)cc2)(C(=O)O)C1 [PF-04475866]
inactive: [1] 3.89% | [2] 26.7% | [3] -4.09% | [4] -5.22% | [5] 2.2% | [6] -8.88% | [7] 5% | [8] -0.33% | [9] -2.64% | [10] 27.9% | [11] 16.6% | [12] -7.87% | [13] -5.33% | [14] -2.5%

Source: ChEMBL document CHEMBL4507298 (2021)
